Data taken from patent publication EP4703354A1, “COMPOUND AS CCR6 ANTAGONIST, AND PHARMACEUTICAL COMPOSITION AND USE THEREOF” (Wuhan Createrna Science and Technology Co.,Ltd., priority 2023, dated 2024).
pIC50: −log10 of the molar value.

Key:
[1] = in vivo pharmacokinetic study in SD rats; conditions: male, rat, plasma; for bioavailability: 1 mg/kg PO vs 1 mg/kg IV, read-out: Oral bioavailability F (%); for AUC(0-t) / Cmax / half-life: 1 mg/kg
Summary of the method: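 Male SD rats (180-200 g), 3 per route: single fasted oral gavage in 1% Tween 80 or tail-vein IV bolus in 50% PEG400. Orbital blood into EDTA-K2 sampled to 8 h; plasma analysed and PK parameters derived by non-compartmental analysis.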

human CXCR2 = molecular target: T1, human CXCR2 (Homo sapiens, UniProt P25025); assay: human CXCR2 calcium flux activity (FLIPR, HEK293 cells stably expressing human CXCR2, IL-8 stimulation); assay type: cell-based; conditions: HEK293 cells stably expressing human CXCR2, EC80 human IL-8; read-out: CXCR2 inhibitory activity, IC50
T1 construct: expressed in transfected cells; host or cells: HEK293
T1 sequence (P25025 1-360): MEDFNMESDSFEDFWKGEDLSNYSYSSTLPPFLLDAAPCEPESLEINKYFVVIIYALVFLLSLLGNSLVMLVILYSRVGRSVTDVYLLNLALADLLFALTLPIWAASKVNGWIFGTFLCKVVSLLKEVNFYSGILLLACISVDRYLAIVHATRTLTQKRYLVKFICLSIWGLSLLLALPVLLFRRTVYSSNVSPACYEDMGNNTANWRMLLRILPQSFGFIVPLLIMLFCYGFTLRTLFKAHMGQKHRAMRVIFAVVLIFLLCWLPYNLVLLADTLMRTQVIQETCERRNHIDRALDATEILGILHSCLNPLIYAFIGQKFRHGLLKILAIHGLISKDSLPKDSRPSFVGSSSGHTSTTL
Description: The activity of the compounds was evaluated using HEK293 cells stably expressing human CXCR2 via the FLIPR platform. A 384-well black cell culture plate (Greiner, 781946) was used, with a seeding density of 20,000 cells/well, and incubated overnight at 37°C in a 5% CO2 incubator. The culture medium in the cell plate wells was removed, and 20 µL of Fluo-4 Direct™ Calcium Assay Buffer (Invitrogen, F10471, Component C), 20 µL of 2× Fluo-4 Direct™ Calcium Assay Reagent (Invitrogen, F10471, Component A) working solution, and 10 µL of 6× test compound working solution were sequentially added to each well. The cell plate was incubated in a 37 °C, 5% CO2 incubator for 50 min, followed by a 10 min incubation at room temperature. Additionally, a 6×EC80 human IL-8 (Sigma, SRP3311) working solution was prepared. After the incubation was completed, 10 µL/well of the 6×EC80 human IL-8 working solution was transferred to the corresponding cell wells using a FLIPR instrument, and the fluorescence signal changes at an excitation wavelength of 494 nm and an emission wavelength of 516 nm were recorded over 130 s. The difference between the maximum fluorescence signal (RFUMax) and the minimum fluorescence signal (RFUMin) was used as the output signal. The compound inhibition rate and the log value of the compound concentration were calculated, and a four-parameter fitting analysis was performed using GraphPad Prism 8 software to obtain the IC50 value of the test compound. Table 1. Inhibitory activity data of compounds against CCR6 and CXCR2

Structure (SMILES) | bioavailability [1] | AUC(0-t) ([1]; IV) | Cmax ([1]; IV) | half-life ([1]; IV) | AUC(0-t) ([1]; PO) | Cmax ([1]; PO) | half-life ([1]; PO) | pIC50 (human CXCR2)
CN(C)C(=O)c1nccc(Nc2c(N[C@@H](C#CC3CCC3)[C@]3(C)CC(F)(F)CO3)c(=O)c2=O)c1O (single isomer, unassigned) [110A] | 68.6% | 580 ng·h/mL | 1860 ng/mL | 19.2 min | 397 ng·h/mL | 311 ng/mL | 55.8 min | 6.53
CN(C)C(=O)c1nccc(Nc2c(N[C@@H](c3nc(Cl)ccc3F)[C@@]3(C)CC(F)(F)CO3)c(=O)c2=O)c1O [068B, 4-((2-(((S)-(6-chloro-3-fluoropyridin-2-yl)((R)-4,4-difluoro-2-methyltetrahydrofuran-2-yl)methyl)amino)-3,4-dioxocyclobut-1-en-1-yl)amino)-3-hydroxy-N,N-dimethylpicolinamide] | 23.4% | 1270 ng·h/mL | 3630 ng/mL | 15 min | 298 ng·h/mL | 291 ng/mL | 91.8 min | 5.12
Cc1cc(F)cnc1[C@H](Nc1c(Nc2ccnc(C(=O)N(C)C)c2O)c(=O)c1=O)[C@]1(C)CC(F)(F)CO1 [093A, 4-((2-(((S)-((S)-4,4-difluoro-2-methyltetrahydrofuran-2-yl)(5-fluoro-3-methylpyridin-2-yl)methyl)amino)-3,4-dioxocyclobut-1-en-1-yl)amino)-3-hydroxy-N,N-dimethylpicolinamide] | 23.7% | 1240 ng·h/mL | 4840 ng/mL | 14.4 min | 295 ng·h/mL | 271 ng/mL | 66 min | < 4.00
CN(C)C(=O)c1nccc(Nc2c(N[C@@H](c3cccc(Cl)n3)C3(C)CCCC3)c(=O)c2=O)c1O [compound 003, (R)-4-((2-(((6-chloropyridin-2-yl)(1-methylcyclopentyl)methyl)amino)-3,4-dioxocyclobut-1-en-1-yl)amino)-3-hydroxy-N,N-dimethylpicolinamide] |  |  |  |  |  |  |  | 5.66
CN(C)C(=O)c1nccc(Nc2c(N[C@@H](c3ccc(F)cn3)C3(C)CCCC3)c(=O)c2=O)c1O [compound 005, (R)-4-((2-(((5-fluoropyridin-2-yl)(1-methylcyclopentyl)methyl)amino)-3,4-dioxocyclobut-1-en-1-yl)amino)-3-hydroxy-N,N-dimethylpicolinamide] |  |  |  |  |  |  |  | 5.90
CN(C)C(=O)c1nccc(Nc2c(N[C@@H](c3ncc(F)cc3F)C3(C)CCCC3)c(=O)c2=O)c1O [compound 009, (R)-4-((2-(((3,5-difluoropyridin-2-yl)(1-methylcyclopentyl)methyl)amino)-3,4-dioxocyclobut-1-en-1-yl)amino)-3-hydroxy-N,N-dimethylpicolinamide] |  |  |  |  |  |  |  | 5.61
Cc1cccnc1[C@H](Nc1c(Nc2ccc(Cl)c(C(=O)N(C)C)c2O)c(=O)c1=O)C1(C)CCCC1 [compound 063, (R)-6-chloro-2-hydroxy-N,N-dimethyl-3-((2-(((1-methylcyclopentyl)(3-methylpyridin-2-yl)methyl)amino)-3,4-dioxocyclobut-1-en-1-yl)amino)benzamide] |  |  |  |  |  |  |  | 4.81
CN(C)C(=O)c1nccc(Nc2c(N[C@@H](c3cccc(CF)n3)C3(C)CCCC3)c(=O)c2=O)c1O [compound 108, (R)-4-((2-(((6-(fluoromethyl)pyridin-2-yl)(1-methylcyclopentyl)methyl)amino)-3,4-dioxocyclobut-1-en-1-yl)amino)-3-hydroxy-N,N-dimethylpicolinamide] |  |  |  |  |  |  |  | 6.13
CC#C[C@H](Nc1c(Nc2ccnc(C(=O)N(C)C)c2O)c(=O)c1=O)C1(C)CCCC1 [compound 113, (R)-3-hydroxy-N, N-dimethyl-4-((2-((1-(1-methylcyclopentyl)but-2-yn-1-yl)amino)-3,4-dioxocyclobut-1-en-1-yl)amino)picolinamide] |  |  |  |  |  |  |  | 5.83
CC#C[C@H](Nc1c(Nc2ccc(Cl)c(C(=O)N(C)C)c2O)c(=O)c1=O)C1(C)CCCC1 [compound 114, (R)-6-chloro-2-hydroxy-N, N-dimethyl-3-((2-((1-(1-methylcyclopentyl)but-2-yn-1-yl)amino)-3,4-dioxocyclobut-1-en-1-yl)amino)benzamide] |  |  |  |  |  |  |  | 5.84
CN(C)C(=O)c1nccc(Nc2c(N[C@@H](C#CC3CC3)C3(C)CCCC3)c(=O)c2=O)c1O [compound 115, (R)-4-((2-((3-cyclopropyl-1-(1-methylcyclopentyl)prop-2-yn-1-yl)amino)-3,4-dioxocyclobut-1-en-1-yl)amino)-3-hydroxy-N,N-dimethylpicolinamide] |  |  |  |  |  |  |  | 6.28
